Measured values reported in patent publication US10844102B2, “Peptides, compositions, and methods for stimulating subcutaneous adipogenesis” (The Regents of the University of California, priority 2014, dated 2020).
“Also recorded” adds a separate entry of the source.

Experiments:
[1] = test system: adipogenesis; assay: Adipogenic activity of peptides and peptide fragments, assay not specified; format: cell-based; settings: assay not specified
Experimental: In the second approach, a series of truncations and alanine mutagenesis on peptide B were performed in order to identify the smallest active sequence. Fragments of peptide B were prepared and assayed for adipogenesis. First, fragments corresponding to the two halves of peptide B were prepared (KLKDENS (SEQ ID NO: 8) and SQLKSEVSK (SEQ ID NO: 13)).

[2] = test system: rat mesenchymal stem cells; assay: Assay 2: adipogenesis, Oil Red O staining (differentiation of pre-adipocytes into adipocytes); format: cell-based; settings: for adipogenesis quantified by Oil Red O staining, fold change relative to the negative control: Assay 2, three weeks; for adipogenic activity in Assay 2: Assay 2, Oil Red O, concentration not given
Experimental: Reagents: The Dexamethasone, IBMX, Insulin, and Oil Red O Solutions were the same as described above for assay 1. Indomethacin Solution contained 10 mM indomethacin in methanol.
Adipogenesis Maintenance Media was prepared as described above.
Adipogenesis Induction Media: To prepare 501.5 mL of Adipogenesis Induction Media, 50 μL of the 10 mM stock Dexamethasone Solution, 500 μL of the 0.5 M IBMX stock solution, 500 μL of the 10 mg/ml stock Insulin Solution, 5 ml of a 10 mM stock Indomethacin Solution, and 5 mL of a 100× stock solution of penicillin and streptomycin were added to 490 mL of mesenchymal stem cell expansion media.
Pre-adipocyte stem cells, bone marrow mesenchymal stem cells or fibroblasts such as dermal reticular and papillary fibroblasts were propagated using standard tissue culture methods. Cells were trypsinized to remove cells from the substratum, the trypsin was neutralized, and cells were counted using a hemocytometer. Cells were resuspended at 20,000 cells/ml in DMEM containing 10% calf serum. 1 mL of cell suspension per well was plated in a 48-well plate, with several wells left empty for blank well (blank control) staining.
Cells were incubated for 2 days overnight and had reached confluency at this point. Media was removed from each well and replaced with 0.5 ml Adipogenesis Induction Media. For negative control (no insulin, no peptide) wells, expansion medium only was used at this step and for subsequent media changes. For all media changes, media was replaced as gently as possible to avoid disturbing the monolayer.
Cells were incubated for 72 hours at 37° C., 5% CO2. Media was removed and replaced with 0.5 ml of Adipogenesis Maintenance Media containing either RHAMM antagonist peptides (experimental group) or insulin (concentration as in the Adipogenesis Induction Media and used as a positive control). Cells were incubated for at least 96 hours in this media at 37° C., 5% CO2. Media was replaced every 48 hours and experiments were terminated between seven and fourteen days after addition of insulin or peptides.
Media was removed and Oil Red O staining was performed as described above for assay 1.
Assay 1 is an assay that promotes transdifferentiation of fibroblasts into adipocytes, whereas Assay 2 promotes differentiation of multi-potential mesenchymal progenitor cells into adipocytes. Immortalized rat bone marrow mesenchymal stem cells were used for both assays. These cells contain cells of different lineages, including fibroblasts, pre-adipocytes, pre-chondrocytes and pre-osteoblasts. Thus, Assay 1 was used to promote transdifferentiation of fibroblast lineages into adipocytes and Assay 2 was used to promote differentiation of the pre-adipocytes into adipocytes.
As described in Example 1 above, the priming stimulus for Assay 1 includes IBMX (3-isobutyl-1-methylxanthine) and dexamethasone, and then insulin as the final adipogenic stimulus. The priming stimulus for assay 2 includes IBMX, dexamethasone and indomethacin, and then insulin as the final adipogenic stimulus.
Adipogenesis was quantified by Oil Red O staining. The peptide was tested at concentrations of 5 and 50 μg/ml over a period of three weeks. Cells were plated in 48-well culture plates, and the purity of the peptides was >95%. All data are presented as the fold change relative to the negative control (Ctr(−))±standard error. The KSEVSK 6-mer (SEQ ID NO: 7) was used as a positive control.

[3] = test system: rat mesenchymal stem cells; assay: Assay 1: adipogenesis, Oil Red O staining (transdifferentiation of fibroblast lineages into adipocytes); format: cell-based; settings: for adipogenesis quantified by Oil Red O staining, fold change relative to the negative control: Assay 1, three weeks
Experimental: Reagents: (1) 3-isobutyl-1-methylxanthine (IBMX) solution: 0.5M in DMSO; (2) Insulin Solution: 10 mg/mL recombinant human insulin; (3) Dexamethasone Solution in 10 mM in ethanol; (4) Oil Red O (0.36% in 60% isopropanol).
Adipogenesis Initiation Media: mesenchymal stem cell expansion media/0.5 mM IBMX/1 μM dexamethasone. Mesenchymal stem cell expansion media is commercially available from Millipore. The IBMX Solution was diluted 1:1000 and the Dexamethasone Solution was diluted 1:10,000 in expansion media containing antibiotics and antimycotics. The prepared media was stored at 4° C.
Adipogenesis Progression Media for positive control: mesenchymal stem cell expansion media/10 μg/mL insulin. The Insulin Solution was diluted 1:1000 in the expansion media and stored at 4° C.
Experimental Adipogenesis Progression Media: mesenchymal stem cell expansion media/1-100 μg/mL RHAMM antagonist peptides.
Adipogenesis Maintenance Media: mesenchymal stem cell expansion media containing antibiotics and antimycotics.
Negative Control Media: Dulbecco's Modified Eagle's Medium (DMEM)/10% normal calf serum.
Pre-adipocyte stem cells including bone marrow mesenchymal stem cells and fibroblasts were propagated using standard tissue culture methods. Cells were trypsinized to remove the cells from the substratum. The trypsin was neutralized and cells were counted using a hemocytometer. Cells were resuspended at 20,000 cells/mL in expansion media. 1 mL of cell suspension was plated per well of 48-well plate, with several wells left empty for blank well (blank control) staining.
Cells were incubated until they reached confluency. When cells were fully confluent, the expansion media was replaced with 0.5 mL of Adipogenesis Initiation Media. For negative controls (no insulin, no peptides), expansion media only was used at this step and for subsequent media changes. For all media changes, media was replaced as gently as possible to avoid disturbing the monolayer.
Cells were incubated in Adipogenesis Initiation Media for 72 hours at 37° C., 5% CO2. 0.5 mL media was then removed from each well, and replaced with 0.5 mL of either positive control or experimental Adipogenesis Progression Media per well. Cells were again incubated for 96 hours at 37° C., 5% CO2, after which time media was replaced every 48 hours with Adipogenesis Maintenance Media (0.5 mL of media was removed from each well and replaced with 0.5 mL Adipogenesis Maintenance Media per well). Media added to empty wells served as blank controls for blank well background staining. Cells were incubated in Adipogenesis Maintenance Medium for at least 96 hours at 37° C., 5% CO2 after which time media was replaced with Adipogenesis Maintenance Medium. Lipid droplets had appeared by the time Adipogenesis Maintenance Medium was initially added and continued to accumulate and increase in size for 7-14 days. Experiments were terminated between seven and fourteen days after the initial addition of Adipogenesis Maintenance Medium.
For quantification of Oil Red O staining, media was removed and cells were washed twice with PBS, using care to gently add the PBS. Cells were then fixed in 4% paraformaldehyde (0.5 mL/well) and incubated for 30 minutes. The fixation solution was then removed and wells were washed two times with 1 mL of phosphate buffered saline (PBS) and once with 1 mL Milli-Q water. 0.25 mL Oil Red O solution was added per well of 48-well plate, including to the wells lacking cells, but containing media. Cells were incubated for 15 minutes at room temperature. The staining solution was then removed and wells were washed two times with 1 mL of Milli-Q water and once with washing solution (63% isopropanol in water).
Adipogenesis was quantified using a spectrophotometer. 0.25 mL Dye Extraction Solution (isopropyl alcohol) was added per well, and the plate was set on an orbital shaker or platform rocker for 30 minutes. […]

[4] = test system: 3T3L cells; assay: Adiponectin ELISA on supernatant medium of primed 3T3L cells; format: cell-based, mouse; settings: 10 μg/ml peptide, versus no insulin control
Experimental: 3T3L cells were cultured in T75 culture flasks, in expansion medium (Millipore Corporation), and stored in a 5% CO2 humidified incubator at 37° C. Media was changed every two days until the cells reached 80% confluency. Cells were subcultured in a 96 well plate with a seeding density of 3×10^4 cells per cm^2.
Once cells had just reached confluency, expansion media was replaced with 0.5 mL of Adipogenic Induction Media per well containing 5% serum that had been screened for an ability to maintain stem cells in an undifferentiated state (LifeTechnologies). Cells were incubated for 48 hours at 37° C., 5% CO2. The Adipogenic Induction Media contained DMEM (low glucose, Gibco) +5% serum (LifeSciences) with 0.5 mM IBMX solution, 1 μM Dexamethasone Solution, and 100 μM Indomethacin Solution (priming stimulus). After 48 hr the Adipogenic Induction media was replaced with new media containing 10 μg/ml insulin alone (positive control), or 10 μg/ml peptide (experimental conditions). Negative controls were DMEM +5% serum only. Plates were incubated for two days prior to adiponectin ELISA analyses. Peptides were added daily at 10 μg/ml throughout the remainder of the experiment.
Adiponectin present in the supernatant medium was measured using a mouse adiponectin ELISA (Novex, LifeTechnologies). Briefly, supernatant medium was collected and diluted 1:100. One hundred microliters of the diluted supernatant medium was added to each well of the ELISA plate and incubated for one hour at 37° C. Wells were washed three times with 1× wash buffer and then 100 μl of antibody was added to each well and incubated for one hour at 37° C. The wells were then washed and incubated with 100 μl detector antibody for 1 hr at 37° C. The wells were washed five times with wash buffer and 100 μl of substrate solution was added to each well and incubated for twenty minutes in the dark. The reaction was then stopped by the addition of 100 μl stop solution. Plates were read at 450 nm and concentrations of adiponectin were derived from a standard curve included in the ELISA plate.
Insulin and the KSEVSK peptide (SEQ ID NO: 7) served as positive controls. […] In FIG. 7, values marked by asterisks represent significant changes relative to the no insulin control (i.e., the negative control) using a two-tailed Student's T test, p<0.05.

[5] = earlier reports, background and U.S. Pat. No. 6,271,344; cited from earlier work
[6] = test system: mesenchymal stem cell; settings: commercially available mesenchymal stem cell kit; as described in WO 2014/082042; cited from earlier work

KLKDENS (listed as Homo sapiens)
adipogenic activity [1]: did not exhibit adipogenic activity; also recorded: lack adipogenic activity

KLKDENSQ (listed as Homo sapiens)
adipogenesis quantified by Oil Red O staining, fold change relative to the negative control ([2]; peptide 5 μg/ml): significant adipogenic effect | adipogenesis quantified by Oil Red O staining, fold change relative to the negative control ([2]; peptide 50 μg/ml): significant adipogenic effect | adipogenesis quantified by Oil Red O staining, fold change relative to the negative control ([3]; peptide 5 μg/ml): significant adipogenic effect | adipogenesis quantified by Oil Red O staining, fold change relative to the negative control ([3]; peptide 50 μg/ml): significant adipogenic effect | adipogenic activity [1]: are adipogenic

KLQEELNKV (Ovis aries)
adipogenesis quantified by Oil Red O staining, fold change relative to the negative control ([2]; peptide 5 μg/ml): only observed when a concentration of 50 μg/ml was used | adipogenesis quantified by Oil Red O staining, fold change relative to the negative control ([2]; peptide 50 μg/ml): significantly increased adipogenesis | adipogenesis quantified by Oil Red O staining, fold change relative to the negative control ([3]; peptide 5 μg/ml): significantly increased adipogenesis | adipogenesis quantified by Oil Red O staining, fold change relative to the negative control ([3]; peptide 50 μg/ml): significantly increased adipogenesis

KTRSHHI (listed as Monodelphis domestica)
adipogenic activity in Assay 2 [2]: ablated adipogenic activity | adipogenic activity in Assay 1 ([3]; Assay 1, Oil Red O, concentration not given): ablated adipogenic activity

KTRSHHV
adipogenic activity in Assay 2 [2]: not in assay 2 | adipogenesis quantified by Oil Red O staining, fold change relative to the negative control ([3]; peptide 5 μg/ml): significant increase in adipogenesis | adipogenic activity [1]: has adipogenic activity; also recorded: is adipogenic

KTSSHHV (listed as Arabidopsis thaliana)
adipogenic activity in the adiponectin assay (adiponectin secretion) [4]: lack an ability to promote adipogenesis

LKSEVSK (listed as Homo sapiens)
adipogenic activity [1]: also found to be adipogenic

SQLKSEVSK (listed as Homo sapiens)
adipogenic activity [1]: found to be adipogenic

STMMSRSHK
adipogenic activity [1]: found to have adipogenic activity

STMMSRSHKTRSCHH
binding to hyaluronan (HA) [5]: binds to HA

B1: 114 amino acid protein fragment: RHAMM carboxy-terminal sequence from mouse RHAMM produced as a recombinant protein (protein, listed as Mus musculus)
chain: LDAFEAEKQALLNEHGATQEQLNKIRDSYAQLLGHQNLKQKIKHVVKLKDENSQLKSEVSKLRSQLVKRKQNELRLQGELDKALGIRHFDPSKAFCHASKENFTPLKEGNPNCC
adipogenesis [6]: promoted adipogenesis
